Assays:
[1] = system: s12_13_82m7 (DNA, aptamer) GCGCGATCAAGGTCGGAGCGTTTTCGCGGAGTCGGCTGGATCGCGC; assay: ITC; settings: 50 mM Na+, 3 mM Mg2+; BB: 20 mM Tris-acetate, pH 7.4, 25 °C
[2] = system: s12_13_82 (DNA, aptamer) ATACCAGCTTATTCAATTCAGGGCGGTATGAGGCTCGATCAAGGTCGGAGCGAGAATTTTTTCGCGGAGTCGGCTGGATCAGATAGTAAGTGCAATCT; assay: ITC; settings: 50 mM Na+, 3 mM Mg2+; BB: 20 mM Tris-acetate, pH 7.4, 25 °C
[3] = system: s21_K16 (DNA, aptamer) CGCATACCAGCTTAGTTCAGAATTCATTGGAGCGTGGCGTGGATGCCCGATGAACCGCCCCAGGGTGCAGATAGTAAGTGCAATCTCGGC; assay: ITC; settings: 100 mM Na acetate, 2 mM Mg2+, 5 mM K+, 1 mM Ca2+; SB2: 20 mM Tris-acetate, pH 7.6, 25 °C; 30 μM aptamer, 350 μM KANA in syringe; KD above 300 μM undetectable
[4] = system: s25_Kana6-5 (DNA, aptamer) GACGACGCAGTTGGCTTAGCGTAGGTAAAGGTCGATGTCGTC; assay: ITC; settings: 300 mM Na acetate, 10 mM Mg2+, 5 mM K+; SB3: 50 mM MES-NaOH, pH 7.0, 25 °C
[5] = system: s12_13_82 (DNA, aptamer) ATACCAGCTTATTCAATTCAGGGCGGTATGAGGCTCGATCAAGGTCGGAGCGAGAATTTTTTCGCGGAGTCGGCTGGATCAGATAGTAAGTGCAATCT; assay: CD spectroscopy; settings: 50 mM Na acetate, 3 mM Mg2+; BB: 20 mM Tris-acetate, pH 7.4, 25 °C; 2 μM aptamer, 20 μM KANA
[6] = system: s25_Kana6-1 (DNA, aptamer) GACGACGAGGGCCTGAAACTTGCTGGAACGGTTAAAGTCGTC; assay: ITC; settings: 300 mM Na acetate, 10 mM Mg2+, 5 mM K+; SB3: 50 mM MES-NaOH, pH 7.0, 25 °C
[7] = system: s12_13_82m8 (DNA, aptamer) GCGATCAAGGTCGGAGCGTTTTCGCGAGTCGGCTGGATCGC; assay: ITC; settings: 50 mM Na+, 3 mM Mg2+; BB: 20 mM Tris-acetate, pH 7.4, 25 °C
[8] = system: s12_13_82m1 (DNA, aptamer) GATCAAGGTCGGAGCGAGAATTTTTTCGCGGAGTCGGCTGGATC; assay: ITC; settings: 50 mM Na+, 3 mM Mg2+; BB: 20 mM Tris-acetate, pH 7.4, 25 °C
[9] = system: s12_13_82m2 (DNA, aptamer) GCGATCAAGGTCGGAGCGAGAATTTTTTCGCGGAGTCGGCTGGATCGC; assay: ITC; settings: 50 mM Na+, 3 mM Mg2+; BB: 20 mM Tris-acetate, pH 7.4, 25 °C
[10] = system: s12_13_82m5 (DNA, aptamer) GCGATCAAGGTCGGAGCGAGTTCGCGGAGTCGGCTGGATCGC; assay: ITC; settings: 50 mM Na+, 3 mM Mg2+; BB: 20 mM Tris-acetate, pH 7.4, 25 °C
[11] = system: s25_Kana6-5 (DNA, aptamer) GACGACGCAGTTGGCTTAGCGTAGGTAAAGGTCGATGTCGTC; assay: CD spectroscopy; settings: 300 mM Na acetate, 10 mM Mg2+, 5 mM K+; SB3: 50 mM MES-NaOH, pH 7.0, 25 °C; 2 μM aptamer, 20 μM KANA
[12] = system: s21_K16 (DNA, aptamer) CGCATACCAGCTTAGTTCAGAATTCATTGGAGCGTGGCGTGGATGCCCGATGAACCGCCCCAGGGTGCAGATAGTAAGTGCAATCTCGGC; assay: CD spectroscopy; settings: 100 mM Na acetate, 2 mM Mg2+, 5 mM K+, 1 mM Ca2+; SB2: 20 mM Tris-acetate, pH 7.6, 25 °C; 2 μM aptamer, 20 μM KANA
[13] = system: s11_Kana2 (DNA, aptamer) CACCTAATACGACTCACTATAGCGGATCCGAAGATGGGGGTTGAGGCTAAGCCGACCGTAAGTTGGGCCGTCTGGCTCGAACAAGCTTGC; assay: ITC; settings: 50 mM Na acetate, 5 mM K+, 5 mM Mg2+; SB1: 20 mM Tris-acetate, pH 8.0, 25 °C; 20.8 μM aptamer, 300 μM KANA in syringe; KD above 200 μM undetectable
[14] = system: s12_13_82m6 (DNA, aptamer) GCGCGATCAAGGTCGGAGCGCAGTTGCGGAGTCGGCTGGATCGCGC; assay: ITC; settings: 50 mM Na+, 3 mM Mg2+; BB: 20 mM Tris-acetate, pH 7.4, 25 °C
[15] = system: s25_Kana6-1 (DNA, aptamer) GACGACGAGGGCCTGAAACTTGCTGGAACGGTTAAAGTCGTC; assay: CD spectroscopy; settings: 300 mM Na acetate, 10 mM Mg2+, 5 mM K+; SB3: 50 mM MES-NaOH, pH 7.0, 25 °C; 2 μM aptamer, 20 μM KANA

## CN[C@@H]1[C@H](O[C@H]2[C@H](O[C@H]3[C@H](O)[C@@H](O)[C@H](N=C(N)N)[C@@H](O)[C@@H]3N=C(N)N)O[C@@H](C)[C@]2(O)C=O)O[C@@H](CO)[C@H](O)[C@H]1O
[1]
  binding: no
[2]
  binding: no

## NC[C@H]1O[C@H](O[C@H]2[C@H](O)[C@@H](O[C@H]3O[C@H](CO)[C@@H](O)[C@H](N)[C@H]3O)[C@H](N)C[C@@H]2N)[C@H](O)[C@@H](O)[C@@H]1O
[3]
  binding: no
[4]
  KD: 0.87 ± 0.04 µM
[1]
  KD: 0.000109 ± 1.49e-05 mM
[5]
  binding: yes
[6]
  KD: 2.23 ± 0.24 µM
[7]
  KD: 0.0022 ± 0.000352 mM
[8]
  KD: 96 ± 8.7 nM
[9]
  KD: 0.000101 ± 8e-06 mM
[10]
  KD: 0.000106 ± 8.7e-06 mM
[11]
  binding: yes
[12]
  binding: no
[13]
  binding: no
[2]
  KD: 0.00047 ± 4e-05 mM
[14]
  KD: 0.000519 ± 4.84e-05 mM
[15]
  binding: yes

## NC[C@@H]1O[C@H](O[C@H]2[C@@H](O)[C@H](O[C@@H]3[C@@H](O)[C@H](N)C[C@H](N)[C@H]3O[C@H]3O[C@H](CN)[C@@H](O)[C@H](O)[C@H]3N)O[C@@H]2CO)[C@H](N)[C@@H](O)[C@@H]1O
[1]
  binding: no
[2]
  binding: no
